# Measured values published in paper PMC3088120 (ACS medicinal chemistry letters, 2011).
# Columns and labels:
# E. coli DNA gyrase = E. coli DNA gyrase (Escherichia coli, UniProt P0AES4+P0AES6); experiment: in vitro dsDNA break; type: biochemical; conditions: 1 tested at ≤3.3 mM
# [1] = test system: E. coli and S. aureus DNA gyrase; conditions: in vitro; cited from earlier work
# E. coli DNA gyrase, sequence (P0AES4 whole entry, one chain of several): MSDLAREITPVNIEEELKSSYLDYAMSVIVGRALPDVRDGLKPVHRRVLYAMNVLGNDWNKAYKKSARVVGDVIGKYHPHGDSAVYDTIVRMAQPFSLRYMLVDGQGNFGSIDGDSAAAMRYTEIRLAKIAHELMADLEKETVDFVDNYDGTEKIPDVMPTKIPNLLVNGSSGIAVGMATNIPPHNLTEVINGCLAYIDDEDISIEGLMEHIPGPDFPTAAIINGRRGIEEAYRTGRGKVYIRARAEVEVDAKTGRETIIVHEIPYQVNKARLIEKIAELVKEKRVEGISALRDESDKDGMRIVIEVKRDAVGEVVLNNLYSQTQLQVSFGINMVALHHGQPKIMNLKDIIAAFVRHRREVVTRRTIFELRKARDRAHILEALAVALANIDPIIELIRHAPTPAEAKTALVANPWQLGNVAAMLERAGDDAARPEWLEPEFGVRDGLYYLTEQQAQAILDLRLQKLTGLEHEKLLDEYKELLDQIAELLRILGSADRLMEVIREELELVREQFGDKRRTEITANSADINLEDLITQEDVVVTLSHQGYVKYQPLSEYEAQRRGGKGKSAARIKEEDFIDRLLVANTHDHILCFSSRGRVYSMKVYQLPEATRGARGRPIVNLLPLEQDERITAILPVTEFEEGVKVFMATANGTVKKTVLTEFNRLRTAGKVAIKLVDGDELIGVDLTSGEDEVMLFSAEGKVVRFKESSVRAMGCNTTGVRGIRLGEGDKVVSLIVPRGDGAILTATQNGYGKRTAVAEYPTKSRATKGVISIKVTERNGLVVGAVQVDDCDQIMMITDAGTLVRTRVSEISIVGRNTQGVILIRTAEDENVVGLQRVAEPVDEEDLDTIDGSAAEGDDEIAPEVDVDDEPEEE
Compound,generation of dsDNA breaks / linearized DNA (E. coli DNA gyrase),release of dsDNA ends [1]
O=C(O)c1cn(C2CC2)c2cc(N3CCNCC3)c(F)cc2c1=O [ciprofloxacin],production of dsDNA breaks,
COc1ccc2ncc(F)c([C@@H](O)CC[C@@H]3CCN(CCSc4cccs4)C[C@@H]3C(=O)O)c2c1 [NXL101],,does not release dsDNA ends
